In US11291235B2, “Phloretin” (Firmenich SA, priority 2016, dated 2022):

Assays:
Type in all cases: in vivo
[1] = Sensory evaluation of strawberry yogurt sweetened with 250 ppm Stevia (SG95), with and without phloretin
[2] = Tasting of phloretin in water or model beverage solution of water and citric acid; conditions: tasted in water or in water and citric acid
[3] = Sensory evaluation of pomegranate juice (POM Brand) sweetened with 150 ppm SG95, with and without phloretin
[4] = Sensory evaluation of tropical juice drink sweetened with sucrose (5%) and Stevia (25 ppm), with and without phloretin
[5] = Sensory evaluation of tropical flavored soft drink containing 7% sucrose, with and without phloretin
[6] = Sensory assessment of pasteurized sweet water solution of pea protein isolate, with and without phloretin; conditions: 30 ppm phloretin, eight panelists, 0 to 5 scale, Duncan test
Method: To evaluate sensory effect of phloretin on pea protein solution Evaluation in blind and randomized conditions of pasteurized sweet water solution of pea protein isolate • 1. Control: no phloretin added • 2. Test: 30 ppm phloretin added (via a presolution 10% in propylene glycol) Weigh and premix protein with sugar (600 gram preparation) Dispersion/solubilisation of protein-sugar-water to obtain a “mother mixture”: disperse mix protein/sugar in water (becher—deionized water 40° C.—Mini Ultra-Turrax T18—Speed 2—time:7 minutes). The same “mother mixture” for both the Control and Test trials. Add phloretin (fresh dilution 10% in propylene Glycol) in Test trial. Split each trials in 2 glass bottles: 100 g for pre-evaluation and generation of sensory attributes—200 gram for sensory assessment Pasteurisation (water bach—95° C.—30 minutes). Cooling bottles at room temperature—Storage in fridge until tasting. Perform Sensory assessment at room temperature. Eight panelists were asked to rate intensity of sensory attributes using a 0 to 5 structured scale (from 0 ‘not perceptible’ to 5 ‘strong intensity’). Sensory descriptors were selected to assess taste, tactile and aromatic stimuli Data treatment was run with XLSTAT software (Duncan mean comparison test). Sensory attributes were selected during a preliminary series of applications evaluated in a free-description mode Symbols for significant differences * at 95% (See FIG. 5). […] Other sensory attributes related to taste (“Sweetness”, “Bitterness”), tactile (mouthcoating) or aromatic stimuli (“cereal”) were unmodified.

[7] = Phloretin as taste modifier in foods and beverages containing steviol glycosides and rebaudioside
[8] = 20 ppm Phloretin, strawberry yogurt with 250 ppm Stevia, in words
[9] = sensory score, Stevia @250 ppm + 20 ppm Phloretin, strawberry yogurt, n = 29
[10] = 35 ppm Phloretin, pomegranate juice with 150 ppm Stevia, in words
[11] = sensory score, Pom Juice + SG95 @150 ppm + Phloretin @ 35 ppm
[12] = 30 ppm Phloretin, sugar (5%) and Stevia (25 ppm) tropical juice drink, in words
[13] = sensory score, Sucrose (5%) and Stevia (25 ppm) control + Phloretin @ 30 ppm, tropical juice drink
[14] = 30 ppm Phloretin, tropical soft drink with 7% sucrose, in words
[15] = sensory score, 7% Sucrose + 30 ppm Phloretin, tropical soft drink

## O=C(CCc1ccc(O)cc1)c1c(O)cc(O)cc1O [Phloretin, 3-(4-hydroxyphenyl)-1-(2,4,6-trihydroxyphenyl)propan-1-one]
[1]; [8]
  Strawberry flavor intensity versus control: higher
  licorice taste versus control: significantly lower
[1]; [9]
  Acidity: 2.56
  Fruity: 3.25
  Green: 2.38
  Jammy: 3.19
  Licorice: 1.44
  Long Lasting: 2.56
  Strawberry Flavor: 3.56
  Sweetness: 3.38
[2]
  own flavor of phloretin: nearly no flavor on its own
[3]; [10]
  Bitterness Intensity, effect of phloretin: significantly reduces
  Pomegranate flavor intensity, effect of phloretin: significantly increasing
  Sourness intensity, effect of phloretin: significantly reduces
[3]; [11]
  Astringent: 4.1
  Berry Flv intensity: 6.01
  Bitterness: 3.35
  Pomegranate Flv intensity: 6.68
  Sourness intensity: 4.75
  Sweetness intensity: 5.79
[4]; [12]
  astringency, effect of phloretin: significantly reduced
  bitterness, effect of phloretin: significantly reduced
[4]; [13]
  Acidity: 2.93
  Astringency: 1.21
  Bitterness: 0.57
  Long-lasting (sweet): 0.50
  Off-notes: 1.21
  Overall Flavor: 3.71
  Sweetness: 2.29
[5]; [14]
  acidity/sourness, effect of phloretin: significantly reduced
  astringency, effect of phloretin: significantly reduced
  bitterness, effect of phloretin: significantly reduced
[5]; [15]
  Acidity/Sourness intensity: 3.27
  Astringency intensity: 2.05
  Bitterness intensity: 1.9
  Mango Flavor intensity: 6.04
  Off-Note intensity: 1.72
  Overall Flavor intensity: 6.76
  Passion Fruit Flavor intensity: 5.69
  Tropical Flavor intensity: 6.55
[6]
  Sweetness, effect of phloretin: unmodified
  aromatic stimuli (cereal), effect of phloretin: unmodified
  bitterness, effect of phloretin: unmodified
  score in astringency, effect of phloretin: significantly reduce
  score in off-tastes, effect of phloretin: significantly reduce
  tactile (mouthcoating), effect of phloretin: unmodified
[7]
  off-note masking: bitterness: reduced bitterness
  off-note masking: licorice: reduced licorice
  off-note masking: linger: reduced linger
